Data on three molecules can be found in patent US9822128B1, “Substituted spirooxindoles” (KING SAUD UNIVERSITY, priority 2017, dated 2017).

One assay deals with HepG2. Description: MTT cytotoxicity assay, hepatocellular carcinoma cells. The assay is classed as cell-based, human. Conditions: for SI: Selectivity Index from IC50 normal (VERO-B) and IC50 cancer (HepG2). The method, then: (§1) The cytotoxic activity of the compounds was tested against different mammalian cancer cells, prostate carcinoma cells (PC-3), hepatocellular carcinoma (HepG2) and colon cancer cells (HCT-116) and against African green monkey kidney cell line (Vero-B). The cell lines were obtained from American Type Culture Collection (ATCC). The cells were cultivated at 37° C. and 10% CO2 in DMEM (Lonza, 12-604F) medium supplemented with 10% fetal bovine serum (FBS, Lonza, Cat. No. 14-801E), 100 IU/ml penicillin and 100 μg/ml streptomycin (Lonza, 17-602E). Cisplatin (cis-diamineplatinum (II) dichloride) was used as a positive control and was obtained from Sigma then dissolved in 0.9% saline then stored as 8 mM stock solution at −20° C. The synthesized compounds were solubilized in DMSO and stored at −20° C. 0.5% crystal violet was prepared in Methanol and was used to stain the viable cells (Feoktistova, Geserick et al. 2016). Crystal violet binds to proteins and DNA in the adherent and viable cells so the stain is an indicator for the viability of the treated cells. The viability of the cells were quantified by using MTT reagent (3-(4,5-dimethylthiazol-2-yl)-2,5-diphenyl tetrazolium bromide), which measure the activity of mitochondrial dehydrogenase in the viable cells (Slater, Sawyer et al. 1963, Mosmann 1983).
(§2) Cytotoxicity was further assayed as follows. The cells were seeded in 96-well plate as 5*10^4 cells/mL (100 μL/well). A serial dilutions of tested compounds or cisplatin (100, 30, 10, 3.3, 1.1 or 0.37 μM) was added after overnight incubation of the cells at 37° C. and 5% CO2. DMSO was used as a control (0.1%). The cells were incubated for 48 hrs. After that, 15 μl of MTT (5 mg/mL PBS) was added to each well and incubated for another 4 hours. The formazan crystals were solubilized by 100 μL acidified SDS solution (10% SDS/0.01 M HCl). The absorbance was measured after 14 hours of incubation at 37° C. and 5% CO2 at 570 nm by Biotech plate reader. Each experiment was repeated three times and standard deviation was calculated (±). IC50% was calculated as the concentration that cause 50% inhibition for cell growth. The growth of the cells were monitored and the images were acquired by Gx microscopes (GXMGXD202 Inverted Microscope) (10× Eyepiece) after staining with crystal violet.
On the technique in general: Tetrazolium dyes change colour on reduction, which living cells bring about.

A further assay relates to HCT-116. Description: MTT cytotoxicity assay, colon cancer cells. The assay is classed as cell-based, human. Conditions: for SI: Selectivity Index from IC50 normal (VERO-B) and IC50 cancer (HCT-116). Here is the method: as §1, §2
For the next assay, the system named is Vero-B. The assay can be described thus: MTT cytotoxicity assay, normal kidney cell line. The format is cell-based, African green monkey. The settings on record: MTT, 48 hrs incubation, read-out: VERO-B (IC50% μM). Here is the method:
as §1, §2

The next assay concerns PC-3. Description: MTT cytotoxicity assay, prostate carcinoma cells. The assay is classed as cell-based, human. The settings on record: for SI: Selectivity Index from IC50 normal (VERO-B) and IC50 cancer (PC-3). The method, then: as §1, §2
Setting [1] is: Homo sapiens, HepG2, MTT, 48 hrs incubation, read-out: HepG2 (IC50% μM).
Setting [2] is: Homo sapiens, HepG2, MTT, 48 hrs incubation, read-out: HepG2 (IC50% μg/ml).
Setting [3] is: Homo sapiens, HCT-116, MTT, 48 hrs incubation, read-out: HCT-116 (IC50% μM).
Where [4] appears, read: Homo sapiens, HCT-116, MTT, 48 hrs incubation, read-out: HCT-116 (IC50% μg/ml).
The mark [5] stands for this setting: Chlorocebus sabaeus, Vero B, Table 1.
Setting [6] is: Homo sapiens, PC-3, MTT, 48 hrs incubation, read-out: PC-3 (IC50% μM).
The mark [7] stands for this setting: Homo sapiens, PC-3, MTT, 48 hrs incubation, read-out: PC-3 (IC50% μg/ml).

Where two headings read alike, the source gives them in different places.

`N.N.[Cl][Pt][Cl]` [Cisplatin, cis-diamineplatinum (II) dichloride, reference compound]: the “HepG2 (IC50% μg/ml)” value in the assay on HepG2 (MTT, 48 hrs incubation) was 1.7 µg/mL. Besides, the IC50 is 5.5 ± 1 µM with HepG2 (MTT, 48 hrs incubation, read-out: HepG2 (IC50% μM)); 12.6 ± 2 µM with HCT-116 (MTT, 48 hrs incubation, read-out: HCT-116 (IC50% μM)); 5 µM with Vero-B (Table 1); 5 µM in the assay with Vero-B (Table 2); 5 µM in the assay on Vero-B (Table 3); 5 ± 0.5 µM in the assay with PC-3 (MTT, 48 hrs incubation, read-out: PC-3 (IC50% μM)). Besides, the results for the SI in the assay on HepG2, in the assay with HCT-116 and in the assay on PC-3 were 0.9091, 0.3968 and 1, respectively. In addition, in the assay on HCT-116 (MTT, 48 hrs incubation), the “HCT-116 (IC50% μg/ml)” value stood at 3.8 µg/mL. For the same molecule, in the assay with PC-3 (MTT, 48 hrs incubation), the “PC-3 (IC50% μg/ml)” value turned out to be 1.5 µg/mL.
With `O=C(/C=C/c1ccc(F)cc1)[C@H]1[C@H](c2ccc(F)cc2)[C@H]2CSCN2[C@]12C(=O)Nc1ccccc12` [Compound 4m, (3R,6′S,7′R,7a′S)-7′-(4-fluorophenyl)-6′-((E)-3-(4-fluorophenyl)acryloyl)-1′,6′,7′,7a′-tetrahydro-3′H-spiro[indoline-3,5′-pyrrolo[1,2-c]thiazol]-2-one], the IC50 in the assay on HepG2 (setting [1]) was 2.4 ± 0.4 µM; in the assay on HepG2 (setting [2]), 1.2 µg/mL; with HCT-116 (setting [3]), 5 ± 0.3 µM; in the assay on HCT-116 (setting [4]), 2.4 µg/mL; in the assay on Vero-B (setting [5]), 6 µM; with PC-3 (setting [6]), 2.5 ± 0.2 µM. Besides, the IC50 in the assay on PC-3 (setting [7]) worked out at 1.2 µg/mL. The values for the SI in the assay with HepG2, in the assay with HCT-116 and in the assay with PC-3 were 2.5, 1.2 and 2.4, respectively.
For the molecule `O=C(/C=C/c1cccc(Br)c1)[C@H]1[C@H](c2cccc(Br)c2)[C@H]2CSCN2[C@]12C(=O)Nc1ccccc12` [Compound 4l, (3R,6′S,7′R,7a′S)-7′-(3-bromophenyl)-6′-((E)-3-(3-bromophenyl)acryloyl)-1′,6′,7′,7a′-tetrahydro-3′H-spiro[indoline-3,5′-pyrrolo[1,2-c]thiazol]-2-one], the IC50 in the assay on HepG2 (setting [1]) turned out to be 0.9 ± 0.1 µM; with HepG2 (setting [2]) it was 0.5 µg/mL; with HCT-116 (setting [3]), 1.57 ± 0.3 µM; with HCT-116 (setting [4]), 0.95 µg/mL; in the assay on Vero-B (setting [5]), 3 µM; in the assay with PC-3 (setting [6]), 1.5 ± 0.5 µM. Further, the IC50 with PC-3 (setting [7]) was determined as 0.9 µg/mL. Moreover, the results for the SI in the assay with HepG2, with HCT-116 and with PC-3 were 3.333, 1.911 and 2, respectively.
